In patent US12440567B2, “Aqueous antibody formulation stabilized by antioxidants for parenteral administration” (AMGEN INC., priority 2007, dated 2025):
Blank lines part the entries; values can stand above or below the molecule they belong to.

Tests used:
[1] = test system: Antibody B binding to protein A; assay: Binding of Antibody B to protein A after UV-B exposure of the formulation; conditions: 20 mM additive; pH 6.90 phosphate buffer; 0-24 hours UV-B
Description: For the examples below involving exposure to UVB radiation, each sample was exposed to UVB light (λ≈302 nm) for varying times, using a UVP 8W model UVLMS-38 lamp at 4° C. The formulations were then analyzed using size exclusion chromatography high pressure liquid chromatography (SEC-HPLC). Aggregation (measured via SEC-HPLC analysis) and binding (measured using CM5 gold sensor chips) were measured to determine the effect of the antioxidant on aggregation and bioactivity of the therapeutic protein.
The binding activity of therapeutic protein to a ligand (e.g. to an antibody or binding partner, or, in cases where the therapeutic was an antibody, binding activity to the specific target antigen or to protein A) was determined as follows. […] The therapeutic protein-binding ligand of interest was injected until the desired immobilization level was achieved (above 5000 response units). Three different therapeutic protein-binding ligands were measured—Antibody A's target antigen, Protein A, and D11 (an antibody that binds to erythropoietin). […] The remaining activated groups were blocked with 1.0 M ethanolamine-HCl, pH 8.5.
A standard curve was prepared by using native forms of the therapeutic protein of interest. Native forms of the therapeutic protein were diluted in HBS-EP buffer (pH 7.4) to concentrations between 1 and 5 μg/mL, and then injected on the column, prepared as described above to obtain a standard curve. At the end of each sample run, regeneration buffer was used to wash away any bound therapeutic protein in preparation for subsequent injections.
Various UV-stressed antibody formulations were also diluted in HBS-EP buffer (pH 7.4) to a concentration within the standard curve region, and injected to quantitate the loss of bioactivity to its respective ligand-binding partner.

[2] = test system: Antibody A; assay: Discoloration (yellowing) of Antibody A formulations after UV-B exposure; format: physicochemical; conditions: 10 mM additive alone; UV-B light 24 hours
Description: Discoloration can be assessed visually or by measurement of absorbance at a specific wavelength.
Proteins may also become yellow in color following exposure to UV light.
Pyridoxine is another water soluble B-vitamin (B6) which was studied as a possible antioxidant for preventing protein aggregation caused by UV-B exposure.

[3] = test system: EPO; conditions: 10 mM additive, 0.06% H2O2, 24 hours, room temperature
Description: An exemplary protocol for Met-54 oxidation and peroxide assay is as follows. 0.6% hydrogen peroxide is added to 20 mM sodium phosphate solution containing 0.336 m/mL erythropoietin (EPO). Following 24 hours incubation at room temperature, 1 μg of the enzyme catalase is added to quench the excess hydrogen peroxide. 10 μL of 1M Tris solution pH 8.0 is added to 90 μL of EPO solution followed by addition of 2 μL of a 1 mg/mL trypsin solution. Samples are incubated overnight at room temperature. Peptides are separated using reverse phase HPLC (RP-HPLC). Peptides are identified by mass spectrometry (LC-MS). % Met-54 oxidation is calculated using peak areas determined by integration of UV chromatogram from RP-HPLC

[4] = test system: Antibody A; conditions: 400 mM proline; 1% H2O2, 2 weeks
Description: Extreme conditions designed to greatly increase free radical generation include exposure to UVA and/or UVB light at 4° C. to 25° C. for 0.5 to 24 hours, or exposure to a 1% solution of hydrogen peroxide at 25° C. for 2 weeks, or exposure to 0.2 mM Fe-EDTA, 0.3% H2O2, and 1 mM ascorbate for 2 hours or longer at 37° C. Samples may alternatively be exposed to light providing an overall illumination of not less than 1.2 million lux hours and an integrated near UV energy of not less than 200 watt hours/square meter.

[5] = test system: Antibody A (IgG1); assay: SEC-HPLC aggregation of Antibody A (IgG1) after UV-B exposure; format: physicochemical; conditions: Antibody A 1 mg/mL pH 5.00
Description: The SEC-HPLC conditions were as follows: a G3000 TOSOH SWXL column was used and the flowrate was set at 0.5 mL/min. […] For both IgG1 and IgG2, the mobile phase was 80 mM sodium phosphate, 300 mM sodium perchlorate, 10% isopropanol, pH 7.2, and each sample was run for 45 minutes.
For FIG. 5, the anti-streptavidin formulation was prepared having the following characteristics: 1 mg/mL anti-streptavidin mAb (IgG2), 10 mM sodium acetate, 5% sorbitol, and pH 5.00. For FIG. 6, the Antibody A formulation was prepared having the following characteristics: 1 mg/mL Antibody A (IgG1), 10 mM sodium acetate, 9% sucrose, and pH 5.20.

[6] = PABA: doses as high as 12 grams per day; cited from earlier work
[7] = Color change of the antioxidant upon light; format: physicochemical
Text: P-amino benzoic acid (PABA) has a relatively powerful antioxidant effect.

yellowing of Antibody A formulation [2]: significant yellowing
Compound: CSCC[C@H](N)C(=O)O [methionine]
binding of Antibody B to protein A after UV-B exposure [1]: not able to prevent this UV-B induced degradation | amount of Met-54 oxidation [3]: able to reduce the amount of EPO oxidation

prevention of Antibody A aggregation caused by peroxide [4]: stronger effect | protection of Antibody A from UV-B induced degradation (aggregation) ([5]; 200 mM proline, UV 15 minutes): weak effect
Compound: O=C(O)[C@@H]1CCCN1 [proline]

Compound: Nc1ccc(C(=O)O)cc1 [PABA, P-amino benzoic acid]
toxicity in humans [6]: without significant toxicity | color change upon light [7]: changes to an orange-brown color upon light | aggregation of Antibody A (SEC-HPLC) ([5]; 20 mM PABA, UV 1, 2, or 3 hours): able to significantly reduce the amount of aggregation
